Values joined by “and” are separate entries in the source; they are usually repeats but may differ in a detail not shown here. Identical values can stand only once. Like-named read-outs stand apart in the source and are kept apart here.
Columns and labels:
PRMT5 F225M = biological target: T1, PRMT5 F225M (Homo sapiens, UniProt O14744, F327M); assay: Radioactive methyltransferase assay, mutant PRMT5; format: biochemical; details: F225M mutant PRMT5, SmD3 substrate, Fig 4D
T1 construct: His6; made in house; host or cells: bacteria (E. coli BL21(ED3) for the wild type)
T1 sequence (O14744 whole entry F327M): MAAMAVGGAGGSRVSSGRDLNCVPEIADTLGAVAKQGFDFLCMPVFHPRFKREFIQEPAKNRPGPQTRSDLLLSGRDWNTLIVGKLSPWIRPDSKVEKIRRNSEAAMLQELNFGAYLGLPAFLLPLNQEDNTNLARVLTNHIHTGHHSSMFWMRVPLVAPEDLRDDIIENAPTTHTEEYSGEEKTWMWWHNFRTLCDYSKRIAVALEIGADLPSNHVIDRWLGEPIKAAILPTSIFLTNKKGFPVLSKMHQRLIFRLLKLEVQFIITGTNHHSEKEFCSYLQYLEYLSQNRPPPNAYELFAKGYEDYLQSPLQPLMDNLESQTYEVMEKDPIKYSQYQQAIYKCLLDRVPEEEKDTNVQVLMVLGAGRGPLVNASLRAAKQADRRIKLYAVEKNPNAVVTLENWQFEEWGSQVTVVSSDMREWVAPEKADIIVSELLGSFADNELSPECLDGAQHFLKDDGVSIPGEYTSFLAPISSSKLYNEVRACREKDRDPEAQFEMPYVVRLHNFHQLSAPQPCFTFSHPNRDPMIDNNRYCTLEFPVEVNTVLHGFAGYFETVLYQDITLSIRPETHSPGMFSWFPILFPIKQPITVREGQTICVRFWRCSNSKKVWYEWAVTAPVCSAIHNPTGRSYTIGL
Procedure: (§1) Methylation reactions were performed as previously described with a few modifications. Reaction mixtures (40 μl) containing 1.2 μg of PRMT5, 98 ng of PRMT1 or 98 ng of PRMT3; 2 μg of SmD3 or histones; 1 μCi of S-[methyl-^3H]adenosylmethionine (H^3-AdoMet; PerkinElmer); and 5 μM AdoMet were incubated in 50 mM Tris-HCl (pH 7.5)–1 mM EGTA–1 mM EDTA at 30°C for 2 h. Reaction mixtures (20 μl) were boiled in 5 μl of 5x SDS sample buffer and separated on a 15% polyacrylamide gel. Gels were fixed for 30 min in 40% methanol–10% acetic acid, incubated in 20 ml of Amplify (Amersham Life Science) for 10 min, dried and exposed to X-ray film at -80°C. IC50 was calculated by linear regression analysis of percent inhibition. The other half (20 μl) of each reaction mixture was spread onto DE81 chromatography paper discs (Whatman). The paper discs were washed 4 times with 50 mM NaHCO3 and dried. The amounts of methylated products were quantified by liquid scintillation.
The inhibitory activity of the compounds may stem from this interaction. To test this possibility, we conducted site-directed mutagenesis to mutate Phe225 in human PRMT5 (corresponding to Phe379 in the C. elegans PRMT5) to Met. The mutated PRMT5 was expressed in bacteria and purified by Ni-nitrilotriacetic acid (Ni-NTA) affinity chromatography (Fig 4A). The activity of the mutant PRMT5 was examined by the radioactive methyltransferase assay. […] The IC50 values for the mutant PRMT5 increased from 4.3 to 183 folds higher than those for the wild type PRMT5 (Fig 4D). […] The results also can help explain the specificity of the compounds to PRMT5. However, the contribution of this interaction to inhibition varies among the compounds. For example, compound C2 interacts with three amino acid residues (Lys451, Glu450, and Phe379) (Fig 3A) with the mutation of Phe to Met resulting in a 50-times higher IC50 (Fig 4C and 4D).
Fig 4 The conserved phenylalanine residue in PRMT5 is critical for inhibition by the five compounds. A, DS-PAGE of recombinant wild type (WT) and F225M mutant (MT) PRMT5. The gel was stained with Coomassie Brilliant Blue R250. A band corresponding to an unknown bacterial protein is indicated (star). B, The F225M mutation increased the methytransferase activity of PRMT5. In vitro methylation reactions were performed with recombinant wild type (lanes 2–4) or mutant (lanes 5–7) PRMT5 (1.2, 2.4 or 4.8 μg) and SmD3 (2 μg) as the substrate. C, The F225M mutation in PRMT5 decreased inhibition of arginine methylation by the compounds. The reaction mixture contained SmD3 (2 μg); wild type or mutant PRMT5 (1.2 μg); and 1, 10 or 100 μM compounds as indicated. D, The F225M mutation in PRMT5 […] of the compounds, as determined by quantitation and analysis of methylation assay results. TEXT PRINTED IN THE PICTURE: (D) C2: IC50 (μM) PRMT5: 0.1; IC50 (μM) PRMT5 F225M: 5.0 | (D) C5: IC50 (μM) PRMT5: 0.8; IC50 (μM) PRMT5 F225M: 3.5 | (D) C6: IC50 (μM) PRMT5: 0.5; IC50 (μM) PRMT5 F225M: 7.0 | (D) C9: IC50 (μM) PRMT5: 6.0; IC50 (μM) PRMT5 F225M: 45.0 | (D) C11: IC50 (μM) PRMT5: 0.3; IC50 (μM) PRMT5 F225M: 55.0

PRMT5 = biological target: T2, PRMT5 (Homo sapiens, UniProt O14744); assay: Radioactive methyltransferase assay, PRMT5; format: biochemical
T2 construct: His6; made in house; host or cells: E. coli BL21(ED3) [sic]
T2 sequence (O14744 whole entry): as the sequence (O14744 whole entry F327M) above, with M327F counted along it
Procedure: as §1
In vitro methylation reactions were performed with recombinant PRMT5 (1.2 μg), PRMT1 ([…]) or PRMT3 (89 ng); [H^3]-AdoMet; and different substrates in the presence of identified compounds. […] The recombinant SmD3 (2 μg) was used as the substrate in the absence (lane 2) or presence of 1, 10 or 100 μM compounds as indicated. Reaction mixtures were separated on an SDS–15% polyacrylamide gel and the gel was dried under vacuum and exposed to film. […] Recombinant histones H4 or H2A (1 μg) were used as substrates of PRMT5 in the methylation assay in the absence or presence of 100 μM compounds as indicated. Reaction mixtures were spread onto DE81 chromatography paper discs. After a wash, the amounts of methylated products on discs were quantified by liquid scintillation. […] PRMT1 was incubated with purified histones (1 μg) or recombinant E2F1 (1 μg) as substrates in the absence (lane 2) or presence of 100 μM compounds as indicated. Reaction mixtures were separated on an SDS–15% polyacrylamide gel and the gel was dried and exposed to film.

[1] = methylation of SmD3 by PRMT5, Table 1 prints no unit, μM, read-out: IC50

IC50 (PRMT5 F225M) [µM]	IC50 (PRMT5; [1])	IC50 (PRMT5; wild type PRMT5, SmD3 substrate, Fig 4D, read-out: IC50 (μM) PRMT5) [µM]	inhibition of PRMT5 activity compared to C9 (PRMT5; SmD3 substrate, 1, 10 or 100 μM)	SMILES
3.5	0.75 µM	0.8		CCn1c(=O)[nH]c2cc(C(=O)Nc3ccc(OC)cc3)ccc2c1=O [Compound C5]
	0.7 µM		higher efficacy	Nc1cccc(Nc2ncnc3c2cnn3Cc2ccccc2)c1 [Compound C9a]
55	0.3 µM			Cn1cc(C(c2ccc(O)c(O)c2O)c2cn(C)c3ccccc23)c2ccccc21 [Compound C11]

SMILES	IC50 (PRMT5 F225M) [µM]	IC50 (PRMT5; [1])	IC50 (PRMT5; wild type PRMT5, SmD3 substrate, Fig 4D, read-out: IC50 (μM) PRMT5) [µM]	inhibition of PRMT5 activity compared to C9 (PRMT5; SmD3 substrate, 1, 10 or 100 μM)
COc1ccc(Nc2ncnc3c2cnn3Cc2ccc(C)cc2)cc1 [Compound C9]	45	~6 µM and 6 µM		

— publication PMC5555576, “Selective small-chemical inhibitors of protein arginine methyltransferase 5 with anti-lung cancer activity” (PLoS ONE, 2017)
